In patent US7754749B2, “Derivatives of a 1-phenyltriazole” (BASF Aktiengesellschaft, priority 2005, dated 2010):

Assays:
Format in all cases: in vivo
Tobacco Budworm = test: Pesticidal action of synergistic mixtures, leaf dip bioassay on cotton leaves; conditions: Heliothis virescens, foliar, 120 h
Excerpt: (§1) 12. Pesticidal action of synergistic mixtures of compounds of formula I
(§2) Potato plants for Colorado potato beetle and two-leaf cotton plants for tobacco budworm were utilized for bioassays. Excised plant leaves were dipped into 1:1 acetone/water dilutions of the active compounds. After the leaves had dried, they were individually placed onto water-moistened filter paper on the bottoms of Petri dishes. Each dish was infested with 5-7 larvae and covered with a lid. Each treatment dilution was replicated 4 times. Test dishes were held at approximately 27° C. and 60% humidity. Numbers of live and morbid larvae were assessed in each dish at 5 days after treatment application, and percent mortality was calculated.
(§3) To determine if an insecticidal mixture was synergistic, Limpel's formula was used: E=X+Y−XY/100 • E=Expected % mortality of the mixture • X=% mortality of compound X, as measured independently • Y=% mortality of compound Y, as measured independently
(§4) Synergism was evident if the % observed mortality for the mixture was greater than the % expected mortality.

Colorado Potato Beetle = test: Pesticidal action of synergistic mixtures, leaf dip bioassay on potato leaves; conditions: Leptinotarsa decemlineata, foliar, 120 h
Excerpt: as §1, §2, §3, §4

[1] = test system: cotton aphid (aphis gossypii); test: Activity against cotton aphid; conditions: 120 h, cotton cotyledons dipped, after 5 days
Excerpt: 5. Activity against cotton aphid (aphis gossypii)
(§5) The active compounds were formulated in 50:50 acetone:water and 100 ppm Kinetic™ surfactant.
Cotton plants at the cotyledon stage (one plant per pot) were infested by placing a heavily infested leaf from the main colony on top of each cotyledon. The aphids were allowed to transfer to the host plant overnight, and the leaf used to transfer the aphids was removed. The cotyledons were dipped in the test solution and allowed to dry. After 5 days, mortality counts were made.

[2] = test system: cowpea aphid (aphis craccivora); test: Activity against cowpea aphid
Experimental: 10. Activity against cowpea aphid (aphis craccivora)
The active compounds were formulated in 50:50 acetone:water. Potted cowpea plants colonized with 100-150 aphids of various stages were sprayed after the pest population has been recorded. Population reduction was recorded after 24, 72, and 120 hours.

[3] = test system: eastern subterranean termite (Reticulitermes flavipes); test: Activity via bait; conditions: rate of 0.005 weight %; three days after treatment; bait (treated filter paper)
Experimental: 3. Activity against Argentine ant (Linepithema humile), acrobat ant (Crematogaster spp.), carpenter ant (Camponotus floridanus), fire ant (Solenopsis invicta), house fly (Musca domestica), eastern subterranean termite (Reticulitermes flavipes), Formosan subterranean termite (Coptotermes formosanus), and German cockroach (Blattella Germanica) via bait
For termites, active ingredient in acetone was applied to filter papers. % a.i. were calculated on basis of the weight of the filter paper. Bioassays were conducted with one treated filter and ca. 30 termite workers per test Petri dish. Test dishes were maintained at 25° C. and observed daily for mortality (dead or moribund insects) or intoxication.

bean aphid (aphis fabae) = test: Activity against bean aphid; conditions: 72 h
Excerpt: 7. Activity against bean aphid (aphis fabae)
as §5
Nasturtium plants grown in Metro mix in the 1st leaf-pair stage (variety ‘Mixed Jewle’) were infested with approximately 2-30 laboratory-reared aphids by placing infested cut plants on top of the test plants. The cut plants were removed after 24 hr. Each plant was dipped into the test solution to provide complete coverage of the foliage, stem, protruding seed surface and surrounding cube surface and allowed to dry in the fume hood. The treated plants were kept at about 25° C. with continuous fluorescent light. Aphid mortality was determined after 3 days.

[4] = test system: diamond back moth (plutella xylostella); test: Activity against diamond back moth; conditions: in Brassica oleracea, foliar, 72 h
Experimental: 11. Activity against diamond back moth (plutella xylostella)
The active compounds were formulated in 50:50 acetone:water and 0.1% (vol/vol) Alkamuls EL 620 surfactant. A 6 cm leaf disk of cabbage leaves was dipped in the test solution for 3 seconds and allowed to air dry in a Petri plate lined with moist filter paper. The leaf disk was inoculated with 10 third instar larvae and kept at 25-27° C. and 50-60% humidity for 3 days. Mortality was assessed after 72 h of treatment.

[5] = test system: green peach aphid (Myzus persicae); test: Activity against green peach aphid; conditions: 120 h, pepper leaves dipped, after 5 days, relative to check plants
Excerpt: 6. Activity against green peach aphid (Myzus persicae)
as §5
Pepper plants in the 2nd leaf-pair stage (variety ‘California Wonder’) were infested with approximately 40 laboratory-reared aphids by placing infested leaf sections on top of the test plants. The leaf sections were removed after 24 hr. The leaves of the intact plants were dipped into gradient solutions of the test compound and allowed to dry. Test plants were maintained under fluorescent light (24 hour photoperiod) at about 25° C. and 20-40% relative humidity. Aphid mortality on the treated plants, relative to mortality on check plants, was determined after 5 days.

[6] = test system: eastern subterranean termite (Reticulitermes flavipes); test: Activity via soil contact; conditions: rate of 1 weight %, 3 days after treatment
Experimental: (§6) 2. Activity against Argentine ant (Linepithema humile), acrobat ant (Crematogaster spp.), carpenter ant (Camponotus floridanus), fire ant (Solenopsis invicta), and eastern subterranean termite (Reticulitermes flavipes) via soil contact
For termites, a thin layer of 1% agar was dispensed into Petri dishes. A thin layer of pre-treated soil was spread over the agar. For soil treatment, the active ingredient was diluted in acetone on a weight-to-weight basis and incorporated into the soil. Termite workers were introduced into each dish. Filter paper served as a food source. Test dishes were held at about 25° C. Termites were observed daily for mortality (dead or unable to stand upright and showing only weak movement).

[7] = test system: silverleaf whitefly (bemisia argentifolii); test: Activity against silverleaf whitefly; conditions: in Gossypium hirsutum, 72 h
Experimental: 8. Activity against silverleaf whitefly (bemisia argentifolii)
as §5
Selected cotton plants were grown to the cotyledon state (one plant per pot). The cotyledons were dipped into the test solution to provide complete coverage of the foliage and placed in a well-vented area to dry. Each pot with treated seedling was placed in a plastic cup and 10 to 12 whitefly adults (approximately 3-5 day old) were introduced. The insects were colleted using an aspirator and an 0.6 cm, non-toxic Tygon® tubing (R-3603) connected to a barrier pipette tip. The tip, containing the collected insects, was then gently inserted into the soil containing the treated plant, allowing insects to crawl out of the tip to reach the foliage for feeding. The cups were covered with a reusable screened lid (150 micron mesh polyester screen PeCap from Tetko Inc). Test plants were maintained in the holding room at about 25° C. and 20-40% relative humidity for 3 days avoiding direct exposure to the fluorescent light (24 hour photoperiod) to prevent trapping of heat inside the cup. Mortality was assessed 3 days after treatment of the plants.

[8] = test system: acrobat ant (Crematogaster spp.); test: Activity via glass contact; conditions: rate of 10 ppm, 24 hours after treatment
Excerpt: (§7) 1. Activity against Argentine ant (Linepithema humile), harvester ant (Pogonomyrmex californicus), acrobat ant (Crematogaster spp.), carpenter ant (Camponotus floridanus), fire ant (Solenopsis invicta), house fly (Musca domestica), stable fly (Stomoxys calcitrans), flesh fly (Sarcophaga sp.), yellowfever mosquito (Aedes aegyptil), house mosquito (Culex quinquefasciatus), malaria mosquito (Anopheles albimanus), German cockroach (Blattella Germanica), cat flea (Ctenocephalides felis), and brown dog tick (Rhipicephalus sanguineus) via glass contact
(§8) Glass vials were treated with 0.5 ml of a solution of active ingredient in acetone and allowed to dry. Insects or ticks were placed into each vial together with some food and moisture supply.

[9] = test system: German cockroach (Blattella Germanica); test: Activity via glass contact; conditions: rate of 5 ppm, 24 hours after treatment
Excerpt: as §7, §8

[10] = test system: yellowfever mosquito (Aedes aegypti); test: Activity via glass contact; conditions: rate of 0.1 ppm, 24 hours after treatment
Excerpt: as §7, §8

[11] = test system: house fly (Musca domestica); test: Activity via glass contact; conditions: rate of 5 ppm, 24 hours after treatment
Excerpt: as §7, §8

[12] = test system: carpenter ant (Camponotus floridanus); test: Activity via soil contact; conditions: 24 h, read-out: mortality of Camponotus floridanus
Experimental: as §6
For ants, tests were conducted in Petri dishes. A thin layer of 1% agar in water was dispensed into the dishes and Florida sandy soil was spread over the agar. The active ingredient was dissolved in acetone and dispensed over the sand. Dishes were vented to evaporate the acetone, infested with ants, and covered. A 20% honey water solution was placed in each dish. The dishes were maintained at 22° C. and observed for mortality at various time intervals.

[13] = test system: brown planthopper (nilaparvata lugens); test: Activity against brown planthopper; conditions: rice seedlings sprayed, recorded after 24, 72 and 120 hours
Experimental: 9. Activity against brown planthopper (nilaparvata lugens)
The active compounds were formulated in 50:50 acetone:water. Potted rice seedlings were sprayed with 10 ml test solution, air dried, placed in cages and inoculated with 10 adults. Percent mortality was recorded after 24, 72 and 120 hours.

[14] = read-out: % Mortality of Tobacco Budworm
[15] = dose rate 100 ppm, 5 days after treatment

CC1(C)C(C=C(Cl)Cl)C1C(=O)OC(C#N)c1cccc(Oc2ccccc2)c1 (stereo not drawn) [alpha-cypermethrin, reference compound]
mortality at 0.03 ppm (Tobacco Budworm; [14]): 0% | mortality at 0.06 ppm (Tobacco Budworm; [14]): 7.2% | mortality at 0.06 ppm (Colorado Potato Beetle; read-out: % Mortality of Colorado Potato Beetle): 17.5%

Cc1nc(C2(C)CC2(Cl)Cl)nn1-c1c(Cl)cc(C(F)(F)F)cc1Cl (stereo not shown) [I-3, 3-(2,2-Dichloro-1-methyl-cyclopropyl)-1-(2,6-dichloro-4-trifluoromethyl-phenyl)-5-methyl-1H-[1,2,4]triazole]
mortality at 300 ppm [1]: 100% | mortality at 300 ppm [2]: 100% | mortality of Reticulitermes flavipes [3]: 100% | mortality at 100 ppm (Tobacco Budworm; [15]): 0% | mortality at 300 ppm (Tobacco Budworm; dose rate 300 ppm, 5 days after treatment): 71.4% | mortality at 300 ppm (bean aphid (aphis fabae)): 100% | mortality at 300 ppm [4]: 100% | mortality at 300 ppm [5]: 100% | mortality of Reticulitermes flavipes [6]: 100% | mortality at 300 ppm [7]: 100% | mortality at 100 ppm (Colorado Potato Beetle; [15]): 12.5% | mortality of Crematogaster spp. [8]: 100% | mortality at 5 ppm [9]: 100% | mortality at 0.1 ppm [10]: 100% | mortality at 5 ppm [11]: 100% | mortality at 10 ppm [12]: 100% | mortality at 300 ppm [13]: 100%

Cc1nc(C2CC2(Cl)Cl)nn1-c1c(Cl)cc(C(F)(F)F)cc1Cl (stereo not shown) [I-2, 1-(2,6-dichloro-4-trifluoromethylphenyl)-3-(2,2-dichlorocyclopropyl)-5-methyl-1,2,4-triazole]
mortality at 300 ppm [2]: 100% | mortality at 300 ppm [13]: 100%
